Measured values from patent US6541631B1, “Methods of separating FTC isomers and derivatives thereof” (Pharma-Eco Laboratories, Inc., priority 1999, dated 2003).
Each block holds one molecule with its values, some of them ahead of it.

Assay: Solubility of cis-FTC Ester and cis-FTC Alcohol in various solvent systems
Type: physicochemical
Method: Therefore, the solubility of the FTC ester in several solvent systems was determined.
Therefore, the solubility of the cis-FTC Alcohol in several solvent systems was determined.

Solubility (100% acetonitrile, RT): 0.38%
Solubility (100% ethanol, RT): 0.51%
Solubility (100% isopropyl alcohol, RT): 0.38%
Solubility (100% methanol, 40-45° C.): 3.21%
Solubility (100% methanol, RT): 0.77%
Solubility (100% water, RT): 0.37%
Compound: Nc1nc(=O)n([C@@H]2CS[C@H](CO)O2)cc1F (relative stereo) [cis-FTC Alcohol, cis-5-fluoro-1-{2-(hydroxymethyl)-1,3-oxathiolan-5-yl}cytosine]

Solubility (20% isopropyl alcohol/80% water, 40-45° C.): 3.59%
Solubility (50% ethanol/50% methanol, 20° C.): 9.03%
Solubility (70% water/30% 2-propanol, 20° C.): 2.40%
Solubility (70% water/30% 2-propanol, 35° C.): 5.39%
Solubility (74.6% water/13.99% 2-propanol/11.41% butanol, 20° C.): 3.16%
Solubility (74.6% water/13.99% 2-propanol/11.41% butanol, 35° C.): 10.5%
Solubility (80% water/5.5% 2-propanol/14.5% butanol, 20° C.): 2.55%
Solubility (80% water/10% 2-propanol/10% butanol, 20° C.): 2.27%
Solubility (80% water/10% 2-propanol/10% butanol, 35° C.): 5.94%
Solubility (80% water/15% 2-propanol/5% butanol, 20° C.): 2.57%
Solubility (80% water/15% 2-propanol/5% tetrahydrofuran, 20° C.): 0.89%
Solubility (80% water/20% 2-butanol, 20° C.): 3.00%
Solubility (80% water/20% 2-propanol, 20° C.): 1.60%
Solubility (80% water/20% 2-propanol, 35° C.): 3.80%
Solubility (80% water/20% ethanol, 20° C.): 0.52%
Solubility (80% water/20% methanol, 20° C.): 0.81%
Solubility (80% water/20% tetrahydrofuran, 20° C.): 1.80%
Solubility (85% water/10% 2-propanol/5% tetrahydrofuran, 20° C.): 0.64%
Solubility (85% water/15% 2-propanol, 35° C.): 0.70%
Solubility (85% water/15% dimethylformamide, 20° C.): 1.24%
Solubility (90% water/10% dimethylformamide, 20° C.): 1.13%
Solubility (95% water/5% dimethylformamide, 20° C.): 0.47%
Solubility (100% 2-propanol, 35° C.): 2.68%
Solubility (100% acetonitrile, 40-45 C): 3.85%
Solubility (100% acetonitrile, 50° C.): 6.20%
Solubility (100% acetonitrile, RT): 1.41%
Solubility (100% ethanol, 20° C.): 4.36%
Solubility (100% ethanol, RT, 40-45 C): 1.28%
Solubility (100% ethyl acetate, 20° C.): 3.03%??
Solubility (100% isopropyl alcohol, RT, 40-45° C.): 0.38%
Solubility (100% methanol, 20° C.): 11.73%
Compound: CCCC(=O)OC[C@@H]1O[C@H](n2cc(F)c(N)nc2=O)CS1 (relative stereo) [cis-FTC Ester, cis-{5-(4-amino-5-fluoro-2-oxo-1(2H)-pyrimidinyl)-1,3-oxathiolan-2-yl}methyl butanoate]
